Results as given in ChEMBL document CHEMBL4422646, “Synthesis and biological evaluation of 3-amino-, 3-alkoxy- and 3-aryloxy-6-(hetero)arylpyridazines as potent antitumor agents” (Bioorg Med Chem Lett, 2019).

Experiments:
NCI-H727 = experiment: Antiproliferative activity against human NCI-H727 cells after 48 hrs by Hoechst 33342 staining-based assay; assay type: functional, cell-based; details: NCI-H727, 48 h
HCT-116 = experiment: Antiproliferative activity against human HCT116 cells after 48 hrs by Hoechst 33342 staining-based assay; assay type: functional, cell-based; details: HCT-116, 48 h
MDA-MB-231 = experiment: Antiproliferative activity against human MDA-MB-231 cells after 48 hrs by Hoechst 33342 staining-based assay; assay type: functional, cell-based; details: MDA-MB-231, 48 h
Fibroblast = experiment: Antiproliferative activity against human fibroblast cells after 48 hrs by Hoechst 33342 staining-based assay; assay type: cell-based
Huh-7 = experiment: Antiproliferative activity against human HuH7 cells after 48 hrs by Hoechst 33342 staining-based assay; assay type: functional, cell-based; details: Huh-7, 48 h
PC-3 = experiment: Antiproliferative activity against human PC3 cells after 48 hrs by Hoechst 33342 staining-based assay; assay type: functional, cell-based; details: PC-3, 48 h
Caco-2 = experiment: Antiproliferative activity against human Caco2 cells after 48 hrs by Hoechst 33342 staining-based assay; assay type: functional, cell-based; details: Caco-2, 48 h
HaCaT = experiment: Antiproliferative activity against human HaCaT cells after 48 hrs by Hoechst 33342 staining-based assay; assay type: cell-based

Measured: IC50

CCCCOc1ccc(-c2cccc(C#N)c2)nn1
> 25 µM: all assays above

CCCCOc1ccc(-c2ccc(C(=O)OCC)cc2)nn1
> 25 µM: all assays above

CCN(CC)c1ccc(-c2cccc(OC)c2)nn1
> 25 µM: all assays above

CCOC(=O)c1ccc(-c2ccc(OC(C)C)nn2)cc1
> 25 µM: all assays above

N#Cc1ccc(Oc2ccc(-c3ccccc3)nn2)cc1
> 25 µM: all assays above

CCN(CC)c1ccc(-c2cccc(Cl)c2)nn1
> 25 µM: all assays above

Cc1cccc(-c2ccc(N3CCOCC3)nn2)c1
> 25 µM: all assays above

FC(F)(F)c1cccc(-c2ccc(Oc3ccccc3)nn2)c1
> 25 µM: all assays above

Cc1cccc(-c2ccc(Oc3ccc(F)cc3)nn2)c1
> 25 µM: all assays above

CCN(CC)c1ccc(-c2ccc(C(=O)O)cc2)nn1
> 25 µM: all assays above

c1ccc2nc(-c3ccc(N4CCOCC4)nn3)ccc2c1
> 25 µM: all assays above
